Calls of active or inactive are those of the source. No cut-off for these calls is given here.
Columns and labels:
[1] = (§1) Inhibition of NF-kappaB (unknown origin) expressed in human L428 cells after 2 hrs by luciferase reporter gene assay; assay type: cell-based; details: L-428, 2 h
Homo sapiens = organism: Homo sapiens; test: as §1; assay type: cell-based
L-428 [2] = test: Cytotoxicity against human L428 cells after 24 by XTT assay; assay type: functional, cell-based
L-428 [3] = test: Cytotoxicity against human L428 cells after 48 by XTT assay; assay type: functional, cell-based
A549 [4] = test: Anti-migratory activity against human A549 cells assessed as reduction in wound closure at 2.6 uM after 48 hrs by wound-scratch assay; assay type: functional, cell-based
L-428 [5] = test: Inhibition of NFkappaB p50 subunit expression in nuclear fractions of human L428 cells at 2.5 ug/ml after 2 hrs by Western method; assay type: functional, cell-based
L-428 [6] = test: Inhibition of NFkappaB p65 subunit expression in nuclear fractions of human L428 cells at 2.5 ug/ml after 2 hrs by Western method; assay type: functional, cell-based
L-428 [7] = test: Inhibition of NFkappaB RelB subunit expression in nuclear fractions of human L428 cells at 2.5 ug/ml after 2 hrs by Western method; assay type: functional, cell-based
L-428 [8] = test: Inhibition of NFkappaB p50 subunit expression in cytosolic fractions of human L428 cells at 2.5 ug/ml after 2 hrs by Western method; assay type: functional, cell-based
L-428 [9] = test: Inhibition of NFkappaB p65 subunit expression in cytosolic fractions of human L428 cells at 2.5 ug/ml after 2 hrs by Western method; assay type: functional, cell-based
L-428 [10] = test: Inhibition of NFkappaB RelB subunit expression in cytosolic fractions of human L428 cells at 2.5 ug/ml after 2 hrs by Western method; assay type: functional, cell-based
A549 [11] = test: Anti-migratory activity against human A549 cells assessed as reduction in wound closure at 5.6 uM after 48 hrs by wound-scratch assay; assay type: functional, cell-based
A549 [12] = test: Anti-migratory activity against human A549 cells assessed as reduction in wound closure at 7.94 uM after 48 hrs by wound-scratch assay; assay type: functional, cell-based

Row | IC50 [1] | SMILES | inhibition (Homo sapiens) | IC50 (L-428 [2]) | IC50 (L-428 [3]) | inhibition (L-428 [5]) | inhibition (L-428 [6]) | inhibition (L-428 [7]) | inhibition (L-428 [8]) | inhibition (L-428 [9]) | inhibition (L-428 [10]) | also measured
1 | 12.8 µM | O=C(CCCCCCCC(Cl)CN=C=S)CC(=O)N[C@H]1CCOC1=O (some centres undefined) | Dose-dependent effect | 15.1 µM | 18.3 µM | Active | Active | Active | Active | Active | Active | Activity (A549 [4]): Active
2 | – | COc1cc(/C=C/C(=O)CC(=O)/C=C/c2ccc(O)c(OC)c2)ccc1O | Active | – | – | – | – | – | – | – | – | –
3 | – | CCCCCCCc1[nH]c2ccccc2c(=O)c1O | Dose-dependent effect | – | – | – | – | – | – | – | – | –
4 | – | C#CCCCCCCCCC(=O)CC(=O)N[C@H]1CCOC1=O | Dose-dependent effect | – | – | – | – | – | – | – | – | –
5 | – | CCCC(=O)N[C@H]1CCOC1=O | Dose-dependent effect | – | – | – | – | – | – | – | – | –
6 | – | CCCCCCCCCCCN=C=S | Dose-dependent effect | – | – | – | – | – | – | – | – | –
7 | 9.9 µM | O=C1C=C(Br)/C(=C/Br)O1 | Dose-dependent effect | 5.16 µM | 3.05 µM | Active | Active | Active | Active | Active | Active | Activity (A549 [12]): Active
8 | – | CCCCCCCCCC(=O)CC(=O)N[C@H]1CCOC1=O | Dose-dependent effect | – | – | – | – | – | – | – | – | –

Row | SMILES | IC50 [1] | inhibition (Homo sapiens) | IC50 (L-428 [2]) | IC50 (L-428 [3]) | inhibition (L-428 [5]) | inhibition (L-428 [6]) | inhibition (L-428 [7]) | inhibition (L-428 [8]) | inhibition (L-428 [9]) | inhibition (L-428 [10]) | also measured
9 | O=C(CCCCCCCCCN=C=S)CC(=O)N[C@H]1CCOC1=O | 4.1 µM | Dose-dependent effect | 13.3 µM | 12.4 µM | Active | Active | Active | Active | Active | Active | Activity (A549 [11]): Active

Source: ChEMBL document CHEMBL4033709, “Quorum sensing modulators exhibit cytotoxicity in Hodgkin's lymphoma cells and interfere with NF-κB signaling” (Bioorg Med Chem Lett, 2017)
